Test results taken from patent US5436229A, “Bisulfite adducts of arginine aldehydes” (Eli Lilly and Company, priority 1994, dated 1995).
Non-standard residues stand in square brackets, D forms with d. Residues, ends and D or L forms follow the SMILES beside them. dPip = O=C(O)[C@H]1CCCCN1

What was measured:
human thrombin = human thrombin (Homo sapiens, UniProt P00734); experiment: Thrombin amidase inhibition (Kass), chromogenic substrate; type: biochemical
Procedure, shortened: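 Kass, in liter per mole, was averaged over several compound concentrations, using free thrombin from a rate standard curve and free inhibitor as added minus bound. Hydrolysis of chromogenic substrate (0.25 mg/ml solution) was monitored at 405 nm with human thrombin (8 NIH units/ml solution) in Tris-NaCl buffer pH 7.4, compound in 50% aqueous methanol.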

[1] = Index of Bioavailability (plasma TT AUC, oral vs i.v.); type: in vivo; settings: rats, oral vs i.v. bolus
Description: Assays are done in duplicate and averaged.
Each sample population represents alternating sequential time points.

template bleeding time = experiment: Template Bleeding Time assay; type: in vivo, dogs; settings: 0.25, 0.50 and 1.0 mg/kg.hr, over a 240 minute time
Procedure: Whole blood cell counts, hemoglobin, and hematocrit values are determined on a 40-μl sample of citrated (3.8 percent) blood (1 part citrate:9 parts blood) with a hematology analyzer (Cell-Dyn 900, Sequoia-Turner. Mount View, Calif., U.S.A.). Gingival template bleeding times are determined with a Simplate II bleeding time device (Organon Teknika Durham, N.C., U.S.A.). The device is used to make 2 horizontal incisions in the gingiva of either the upper or lower left jaw of the dog. Each incision is 3 mm wide×2 mm deep. The incisions are made, and a stopwatch is used to determine how long bleeding occurs. A cotton swab is used to soak up the blood as it oozes from the incision. Template bleeding time is the time from incision to stoppage of bleeding. Bleeding times are taken just before administration of test compound (0 min), 60 min into infusion, at conclusion of administration of the test compound (120 min), and at the end of the experiment.
All data are analyzed by one-way analysis of variance (ANOVA) followed by Student-Neuman-Kuels post hoc t test to determine the level of significance. Repeated-measures ANOVA are used to determine significant differences between time points during the experiments. Values are determined to be statistically different at least at the level of p<0.05. All values are mean±SEM. […]

[2] = Pharmacokinetic Model, oral gavage; type: in vivo; settings: dogs, single 2 mg/kg oral gavage
Procedure: Male dogs (Beagles; 18 months-2 years; 12-13 kg, Marshall Farms, North Rose, N.Y. 14516) are fasted overnight and fed Purina certified Prescription Diet (Purina Mills, St. Louis, Mo.) 240 minutes after dosing. Water is available ad libitum. The room temperature is maintained between 66°-74° F.; 45-50 percent relative humidity; and lighted from 0600-1800 hours.
Test compound is formulated immediately prior to dosing by dissolving in sterile 0.9 percent saline to a 5 mg/ml preparation. Dogs are given a single 2 mg/kg dose of test compound by oral gavage. Blood samples (4.5 ml) are taken from the cephalic vein at 0.25, 0.5, 0.75, 1,2,3,4 and 6 hours after dosing. Samples are collected in citrated Vacutainer tubes and kept on ice prior to reduction to plasma by centrifugation. Plasma samples are derivatized with dinitrophenylhydrazine and analyzed by HPLC (Zorbax SB-C8 column) eluting with methanol/500 mM sodium acetate adjusted to pH7 with phosphoric acid (60:40, v/v). Plasma concentration of test compound is recorded and used to calculate the pharmacokinetic parameters: elimination rate constant, Ke; total clearance, Clt; volume of distribution, VD; time of maximum plasma test compound concentration, Tmax; maximum concentration of test compound of Tmax, Cmax; plasma half-life, t0.5; and area under the curve, A.U.C.; fraction of test compound absorbed, F.

[3] = system: coronary artery thrombosis; experiment: Canine Model of Coronary Artery Thrombosis; type: in vivo, dogs
Procedure: Surgical preparation and instrumentation of the dogs are as described in Jackson, et al., Circulation, 82, 930-940 (1990). Mixed-breed hounds (aged 6-7 months, either sex, Hazelton-LRE, Kalamazoo, Mich., U.S.A.) are anesthetized with sodium pentobarbital (30 mg/kg intravenously, i.v.), intubated, and ventilated with room air. Tidal volume and respiratory rates are adjusted to maintain blood PO2, PCO2, and pH within normal limits. Subdermal needle electrodes are inserted for the recording of a lead II ECG.
The left jugular vein and common carotid artery are isolated through a left mediolateral neck incision. Arterial blood pressure (ABP) is measured continuously with a precalibrated Millar transducer (model (MPC-500, Millar Instruments, Houston, Tex., U.S.A.) inserted into the carotid artery. The jugular vein is cannulated for blood sampling during the experiment. In addition, the femoral veins of both hindlegs are cannulated for administration of test compound.
A left thoracotomy is performed at the fifth intercostal space, and the heart is suspended in a pericardial cradle. A 1- to 2-cm segment of the left circumflex coronary artery (LCX) is isolated proximal to the first major diagonal ventricular branch. A 26-gauge needle-tipped wire anodal electrode (Teflon-coated, 30-gauge silverplated copper wire) 3-4 mm long is inserted into the LCX and placed in contact with the intimal surface of the artery (confirmed at the end of the experiment). The stimulating circuit is completed by placing the cathode in a subcutaneous (s.c.) site. An adjustable plastic occluder is placed around the LCX, over the region of the electrode. […] All hemodynamic and ECG measurements are recorded and analyzed with a data acquisition system (model M3000, Modular Instruments, Malvern, Pa. U.S.A.).
Electrolytic injury of the intima of the LCX is produced by applying 100-μA direct current (DC) to the anode. […] Thrombus formation proceeds spontaneously until the LCX is totally occluded (determined as zero CBF and an increase in the S-T segment). […]

[4] = target: T1, tissue plasminogen activator (t-PA) (Homo sapiens, UniProt P00750); experiment: Serine protease inhibition (Kass), t-PA; type: biochemical
T1 construct: purchased American Diagnostica, Greenwich, Conn

Human plasmin = target: T2, Human plasmin (Homo sapiens, UniProt P00747); experiment: Serine protease inhibition (Kass), plasmin; type: biochemical
T2 construct: Human plasmin is purchased from Boehringer Mannheim; purchased Boehringer Mannheim, Indianapolis, Ind
Procedure, shortened: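 Kass values come from the thrombin chromogenic procedure applied to fibrinolytic proteases. t-PA (nt-PA single chain, or mt-PA6) paired with substrate H-D-Ile-Pro-Arg-p-nitroanilide; human plasmin paired with H-D-Val-Leu-Lys-p-nitroanilide.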

Bovine trypsin = target: T3, Bovine trypsin (Bos taurus, UniProt P00760); experiment: Serine protease inhibition (Kass), trypsin; type: biochemical
T3 construct: Bovine trypsin is purchased from Worthington Biochemicals; purchased Worthington Biochemicals, Freehold, N.J
T3 sequence (P00760 24-246): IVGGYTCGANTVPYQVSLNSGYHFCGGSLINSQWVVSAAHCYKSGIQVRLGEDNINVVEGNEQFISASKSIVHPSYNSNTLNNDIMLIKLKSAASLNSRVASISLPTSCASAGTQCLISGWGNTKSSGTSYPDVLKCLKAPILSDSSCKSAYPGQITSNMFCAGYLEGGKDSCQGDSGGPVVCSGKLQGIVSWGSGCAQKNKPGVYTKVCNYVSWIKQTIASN
Procedure, shortened: (§1)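 Chromogenic p-nitroanilide substrate assays run as for human thrombin; trypsin with N-Benzoyl-Phe-Val-Arg-p-nitroanilide, human factor Xa with N-Benzoyl-Ile-Glu-Gly-Arg-p-nitroanilide. Values are association constants (Kass).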

factor Xa = target: T4, factor Xa (Homo sapiens, UniProt P00742); experiment: Serine protease inhibition (Kass), factor Xa; type: biochemical
T4 construct: Human factors X, Xa, IXa, XIa, and XIIa are purchased from Enzyme Research Laboratories; purchased Enzyme Research Laboratories, South Bend, Ind
Procedure, shortened: as §1

human plasma [5] = experiment: Human plasma anticoagulation, prothrombin time (PT); type: biochemical
Procedure, shortened: (§2)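 Compounds added across a wide concentration range to human plasma; APTT, PT and TT clotting times measured on a coagulation instrument, bovine thrombin used for plasma assays. Concentration doubling clotting time estimated by linear extrapolation.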

human plasma [6] = experiment: Human plasma anticoagulation, thrombin time (TT); type: biochemical
Procedure, shortened: as §2

human plasma [7] = experiment: Human plasma anticoagulation, activated partial thromboplastin time (APTT); type: biochemical
Procedure, shortened: as §2

T1 sequence (P00750 36-562): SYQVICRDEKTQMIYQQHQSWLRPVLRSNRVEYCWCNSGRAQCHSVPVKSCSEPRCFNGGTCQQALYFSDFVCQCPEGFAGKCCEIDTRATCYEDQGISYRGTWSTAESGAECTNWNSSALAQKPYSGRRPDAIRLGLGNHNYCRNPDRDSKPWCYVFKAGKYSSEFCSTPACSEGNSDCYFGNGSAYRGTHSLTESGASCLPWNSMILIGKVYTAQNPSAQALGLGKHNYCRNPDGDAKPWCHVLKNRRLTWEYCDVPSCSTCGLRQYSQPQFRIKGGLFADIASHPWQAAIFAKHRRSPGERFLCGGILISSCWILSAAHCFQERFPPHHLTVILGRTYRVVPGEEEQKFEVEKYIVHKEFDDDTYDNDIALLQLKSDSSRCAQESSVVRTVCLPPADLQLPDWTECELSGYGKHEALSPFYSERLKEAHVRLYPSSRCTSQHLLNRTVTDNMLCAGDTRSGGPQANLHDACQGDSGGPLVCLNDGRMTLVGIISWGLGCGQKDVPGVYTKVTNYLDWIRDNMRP
T4 sequence (P00742 235-488 limits assumed): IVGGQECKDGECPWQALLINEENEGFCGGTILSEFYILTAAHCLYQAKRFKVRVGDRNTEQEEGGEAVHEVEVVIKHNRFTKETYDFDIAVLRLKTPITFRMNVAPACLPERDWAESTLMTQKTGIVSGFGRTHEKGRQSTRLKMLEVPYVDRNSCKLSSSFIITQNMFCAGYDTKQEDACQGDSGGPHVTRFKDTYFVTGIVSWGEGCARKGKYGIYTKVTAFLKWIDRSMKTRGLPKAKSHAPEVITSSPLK
T4 sequence (P00742 41-179 partner limits assumed): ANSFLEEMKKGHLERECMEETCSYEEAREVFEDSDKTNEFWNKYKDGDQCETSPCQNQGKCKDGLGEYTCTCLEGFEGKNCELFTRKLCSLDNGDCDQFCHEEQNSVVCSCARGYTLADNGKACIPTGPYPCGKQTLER
T2 sequence (P00747 581-810 limits assumed): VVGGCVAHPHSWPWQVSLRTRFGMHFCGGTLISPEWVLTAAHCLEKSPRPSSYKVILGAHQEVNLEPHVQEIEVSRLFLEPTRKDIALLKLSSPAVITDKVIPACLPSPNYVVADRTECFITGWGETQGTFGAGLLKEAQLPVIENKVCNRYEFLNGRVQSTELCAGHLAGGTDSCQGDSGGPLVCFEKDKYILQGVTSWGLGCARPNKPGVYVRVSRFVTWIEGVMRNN
T2 sequence (P00747 97-580 partner limits assumed): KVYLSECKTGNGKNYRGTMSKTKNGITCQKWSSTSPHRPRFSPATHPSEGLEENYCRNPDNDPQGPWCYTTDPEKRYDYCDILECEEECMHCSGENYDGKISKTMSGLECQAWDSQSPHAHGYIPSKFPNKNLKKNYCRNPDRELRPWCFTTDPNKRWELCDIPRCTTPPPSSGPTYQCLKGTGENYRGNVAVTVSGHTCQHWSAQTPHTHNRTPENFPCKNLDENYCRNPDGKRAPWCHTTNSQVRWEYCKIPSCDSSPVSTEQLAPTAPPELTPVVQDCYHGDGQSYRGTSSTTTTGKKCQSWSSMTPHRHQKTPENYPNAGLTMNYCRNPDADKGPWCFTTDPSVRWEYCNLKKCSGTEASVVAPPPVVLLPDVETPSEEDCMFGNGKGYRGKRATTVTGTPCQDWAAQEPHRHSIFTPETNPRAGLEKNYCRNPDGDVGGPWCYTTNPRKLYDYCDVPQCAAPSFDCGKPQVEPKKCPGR

| Kass Human Thrombin (human thrombin) [L/mol × 10^6] | Percent Relative Activity (Index of Bioavailability) [1] [%] | Kass t-PA [4] [L/mol × 10^6] | Kass Plasmin (Human plasmin) [L/mol × 10^6] | Kass Trypsin (Bovine trypsin) [L/mol × 10^6] | Kass Xa (factor Xa) [L/mol × 10^6] | Compound | effect on template bleeding time (template bleeding time) | A.U.C. o-infinity [2] [ng·h/mL] | Clt/F [2] [mL/min/kg] | Cmax [2] [ng/mL] | Ke [2] [min.-1] | Tmax [2] [h] | VD/F [2] [L/kg] | t0.5 [2] [min] | Time to Occlusion ([3]; dose 0.25 mg/kg.hr) [min] | Time to Occlusion ([3]; dose 0.50 mg/kg.hr) [min] | Time to Occlusion ([3]; dose 1.00 mg/kg.hr) [min] | 2 × Clotting time PT (human plasma [5]) | 2 × Clotting time TT (human plasma [6]) [ng/mL] | 2 × Clotting time APTT (human plasma [7]) |
| --- | --- | --- | --- | --- | --- | --- | --- | --- | --- | --- | --- | --- | --- | --- | --- | --- | --- | --- | --- | --- |
| 70 | 13 | 1.1 | 7.0 | 43 | 2.0 | Cl.N=C(N)NCCC[C@@H](C=O)NC(=O)[C@@H]1CCCN1C(=O)[C@@H](Cc1ccccc1)NS(=O)(=O)c1ccc(C(=O)O)cc1 [Example 62, N-(4-carboxyphenylsulfonyl)-D-phenylalanyl-L-Prolinyl-L-Arginine Aldehyde Hydrochloride] | – | – | – | – | – | – | – | – | – | – | – | 3,000 ng/mL | 120 | 1,200 ng/mL |
| 690 | 27 | 13 | 17 | 220 | 2.4 | CS(=O)(=O)N[C@H](Cc1ccccc1)C(=O)N1CCC[C@H]1C(=O)N[C@H](C=O)CCCNC(=N)N.Cl [Example 51, N-(methylsulfonyl)-D-phenylalanyl-L-Prolinyl-L-Arginine Aldehyde Hydrochloride] | – | – | – | – | – | – | – | – | – | – | – | 530 ng/mL | 21 | 330 ng/mL |

| Compound | Kass Human Thrombin (human thrombin) [L/mol × 10^6] | Percent Relative Activity (Index of Bioavailability) [1] [%] | Kass t-PA [4] [L/mol × 10^6] | Kass Plasmin (Human plasmin) [L/mol × 10^6] | Kass Trypsin (Bovine trypsin) [L/mol × 10^6] | Kass Xa (factor Xa) [L/mol × 10^6] | effect on template bleeding time (template bleeding time) | A.U.C. o-infinity [2] [ng·h/mL] | Clt/F [2] [mL/min/kg] | Cmax [2] [ng/mL] | Ke [2] [min.-1] | Tmax [2] [h] | VD/F [2] [L/kg] | t0.5 [2] [min] | Time to Occlusion ([3]; dose 0.25 mg/kg.hr) [min] | Time to Occlusion ([3]; dose 0.50 mg/kg.hr) [min] | Time to Occlusion ([3]; dose 1.00 mg/kg.hr) [min] | 2 × Clotting time PT (human plasma [5]) | 2 × Clotting time TT (human plasma [6]) [ng/mL] | 2 × Clotting time APTT (human plasma [7]) |
| --- | --- | --- | --- | --- | --- | --- | --- | --- | --- | --- | --- | --- | --- | --- | --- | --- | --- | --- | --- | --- |
| Cl.Cl.N=C(N)NCCC[C@@H](C=O)NC(=O)[C@@H]1CCCN1C(=O)[C@H]1CCCCN1 [Example 1, D-Homoprolinyl-L-Prolinyl-L-Arginine Aldehyde Dihydrochloride] (H-[dPip]-Pro-Arg-aldehyde) | 46 | 38 | 0.02 | – | – | – | no significant effect on template bleeding time | 4651 | 7.28 | 1676 | 0.0104 | 1 to 2 | 0.729 | 67 | 60 | 150 | > 225 | – | – | – |
